According to the supplement of paper PMC5579334:

Assays:
HSC1 [1] = assay: relative IC50 (inflection point of fitted dose-response curve, CellTiter-Glo viability, 72 h; top asymptote may be below 50% inhibition); higher = less potent
Method in brief: (§1)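 After seeding 750–1000 cells per well of MPNST cell lines or primary human Schwann cells into 384-well plates preprinted with each compound at five concentrations in 10-fold steps, plates were kept 72 h at 37 °C, 5% CO2. Viability was read as CellTiter-Glo ATP luminescence relative to vehicle and positive-control wells, with duplicates averaged where present. The data were fitted with four-parameter logistic models. Drug sensitivity score and relative IC50, censored at the top concentration, derive from the fits, and percent inhibition refers to the top concentration.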

S1507-2 [2] = assay: as above
Method in brief: as §1

S462 = assay: as above
Method in brief: as §1

YST-1 = assay: as above
Method in brief: as §1

HSC2 [3] = assay: as above
Method in brief: as §1

HS-Sch-2 = assay: as above
Method in brief: as §1

STS26T [4] = assay: as above
Method in brief: as §1

ST8814 [5] = assay: as above
Method in brief: as §1

HSC1 [6] = assay: relative IC50 (inflection point of fitted dose-response curve, CellTox-Green cytotoxicity, 72 h; top asymptote may be below 50%); higher = less potent
Method in brief: (§2)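 For 72 h at 37 °C, MPNST cell lines and primary human Schwann cells were exposed in 384-well plates to five 10-fold compound dilutions. CellTox-Green, added before seeding at a final 1:1000 dilution, gave fluorescence from DNA released by disrupted cells. Signals were scaled to vehicle and positive-control wells, cultures failing plate quality control were left out, and four-parameter logistic fits were applied. Relative IC50 and drug sensitivity score were derived from the fits, with IC50 censored at the top concentration.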

S1507-2 [7] = assay: as above
Method in brief: as §2

HSC2 [8] = assay: as above
Method in brief: as §2

STS26T [9] = assay: as above
Method in brief: as §2

ST8814 [10] = assay: as above
Method in brief: as §2

HS-PSS [11] = assay: as above
Method in brief: as §2

HS-PSS [12] = assay: relative IC50 (inflection point of fitted dose-response curve, CellTiter-Glo viability, 72 h; top asymptote may be below 50% inhibition); higher = less potent
Method in brief: as §1

Row | Structure (SMILES) | relative IC50 (HSC1 [1]) [µM] | relative IC50 (S1507-2 [2]) [µM] | relative IC50 (S462) [µM] | relative IC50 (YST-1) [µM] | relative IC50 (HSC2 [3]) [µM] | relative IC50 (HS-Sch-2) [µM] | relative IC50 (STS26T [4]) [µM] | relative IC50 (ST8814 [5]) [µM] | relative IC50 (HSC1 [6]) [µM] | relative IC50 (S1507-2 [7]) [µM] | relative IC50 (HSC2 [8]) [µM] | relative IC50 (STS26T [9]) [µM] | relative IC50 (ST8814 [10]) [µM] | relative IC50 (HS-PSS [11]) [µM] | relative IC50 (HS-PSS [12]) [µM]
1 | O=C(Nc1ccncc1)C(=O)c1cn(Cc2ccc(Cl)cc2)c2ccccc12 [Indibulin] | 0.361 | 0.241 | 0.334 | 0.53 | 0.718 | 0.739 | 0.164 | 0.312 | 2 | 0.494 | 1.58 | 0.146 | 0.43 | > 10 | –
2 | CCNC(=O)c1noc(-c2cc(C(C)C)c(O)cc2O)c1-c1ccc(CN2CCOCC2)cc1 [NVP-AUY922] | 0.0143 | 0.0183 | 0.0217 | – | 0.012 | – | 0.0229 | 0.0229 | 0.0232 | 0.0139 | 0.0204 | 0.0421 | 0.0679 | – | –
3 | Cc1sc2c(c1C)C(c1ccc(Cl)cc1)=N[C@@H](CC(=O)OC(C)(C)C)c1nnc(C)n1-2 [(+)JQ1] | 0.42 | 0.161 | 0.386 | – | 0.462 | – | 0.226 | 0.208 | > 10 | 0.546 | > 10 | > 10 | 0.404 | – | –
4 | Cc1cc2c(C(C)C)c(O)c(O)c(C=O)c2c(O)c1-c1c(C)cc2c(C(C)C)c(O)c(O)c(C=O)c2c1O [AT 101] | 3.72 | 16.3 | 3.79 | 5.3 | 1.74 | 5.35 | 8.98 | 7.15 | 10.7 | > 100 | > 100 | > 100 | – | 30.3 | 15.3
5 | Cc1cn(-c2cc(NC(=O)c3ccc(C)c(Nc4nccc(-c5cccnc5)n4)c3)cc(C(F)(F)F)c2)cn1 [Nilotinib] | > 10 | > 10 | > 10 | – | > 10 | – | > 10 | > 10 | > 10 | > 10 | – | > 10 | > 10 | > 10 | –
6 | Cc1ccc(NC(=O)c2ccc(CN3CCN(C)CC3)cc2)cc1Nc1nc(-c2cccnc2)cs1 [Masitinib] | 3.4 | 2.06 | 3.3 | 2.33 | 2.6 | 3.27 | 3.37 | 3.23 | 3.82 | 3.51 | – | 3.34 | 3.22 | 3.85 | 1.83
7 | CCN(CC)CCCC(C)Nc1ccnc2cc(Cl)ccc12 (stereo unspecified) [Chloroquine aq] | 12.3 | 1.8 | 6.94 | – | 13.1 | – | 5.43 | 3.1 | 15.8 | 3.28 | 19.9 | 3.19 | 2.82 | – | –
8 | CN(C)C[C@@H]1CCn2cc(c3ccccc32)C2=C(C(=O)NC2=O)c2cn(c3ccccc23)CCO1 [Ruboxistaurin] | 3.29 | 2.17 | 2.08 | 1.36 | 1.97 | 3.42 | 2.98 | 1.2 | 2.06 | 2.96 | 1.88 | 2.43 | – | 3.67 | 2.89
9 | COc1cc2c(cc1-c1c(C)noc1C)ncc1[nH]c(=O)n([C@H](C)c3ccccn3)c12 [I-BET151] | 0.992 | 1.25 | 1.31 | 1.07 | 1.15 | 1.06 | 1.13 | 0.918 | – | 1.4 | > 10 | > 10 | 1.24 | > 10 | 1.71
10 | CS(=O)(=O)c1ccc(C(=O)Nc2ccc(Cl)c(-c3ccccn3)c2)c(Cl)c1 [Vismodegib] | > 10 | > 10 | > 10 | – | > 10 | – | > 10 | > 10 | – | > 10 | > 10 | > 10 | > 10 | > 10 | –
11 | CC(C)Cn1cnc2c(N)nc3ccccc3c21 [Imiquimod] | > 2.5 | > 2.5 | > 2.5 | > 2.5 | > 2.5 | – | > 2.5 | > 2.5 | > 2.5 | > 2.5 | > 2.5 | > 2.5 | > 2.5 | > 2.5 | –
12 | c1ccc2c(CCNc3ccc(Nc4ccncc4)cc3)c[nH]c2c1 [Serdemetan] | 1.37 | 1.62 | 1.15 | 0.876 | 1.35 | 3.74 | 2.44 | 0.887 | – | 2.81 | > 10 | 3.31 | 0.865 | 3.24 | 2.71
13 | CC[C@@]1(O)C(=O)OCc2c1cc1n(c2=O)Cc2cc3ccccc3nc2-1 [Camptotechin] | 0.0473 | 0.1 | 0.0302 | – | 0.0405 | – | 0.0628 | 0.0307 | 0.0757 | 0.244 | 0.136 | 0.126 | 0.0146 | – | –
14 | Cn1cncc1[C@@](N)(c1ccc(Cl)cc1)c1ccc2c(c1)c(-c1cccc(Cl)c1)cc(=O)n2C [Tipifarnib] | 1.35 | 0.0975 | 0.51 | 0.175 | 0.585 | 1.51 | 0.351 | 0.366 | – | > 10 | > 10 | 0.342 | – | > 10 | 0.683
